In US20150259344A1, “IMIDAZOLE DERIVATIVE” (DAINIPPON SUMITOMO PHARMA CO., LTD., priority 2012, published 2015):

Target: T1, human α7 nAChR (Homo sapiens, UniProt P36544)
T1 construct: expressed in transfected cells
Assay: Evaluation of PAM activity with human α7 nACh receptor stably expressing cells (aequorin luminescence, FDSS7000)
Assay type: cell-based
Details: 1 μM test compound (values marked *, footnote of Table 25); ACh at EC20; ratio of RLU (Max-Min) to control wells; read-out: α7PAM (%) @1 μM
How it was run: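 Human α7 nAChR stable cells loaded with 4 μM Viviren (final) for 4 h at room temperature in the dark. Compounds in Hanks/20 mM HEPES/0.2% BSA were added and luminescence recorded on FDSS7000. PAM activity = RLU (Max-Min) ratio of test wells to control wells.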

T1 sequence (P36544 23-502): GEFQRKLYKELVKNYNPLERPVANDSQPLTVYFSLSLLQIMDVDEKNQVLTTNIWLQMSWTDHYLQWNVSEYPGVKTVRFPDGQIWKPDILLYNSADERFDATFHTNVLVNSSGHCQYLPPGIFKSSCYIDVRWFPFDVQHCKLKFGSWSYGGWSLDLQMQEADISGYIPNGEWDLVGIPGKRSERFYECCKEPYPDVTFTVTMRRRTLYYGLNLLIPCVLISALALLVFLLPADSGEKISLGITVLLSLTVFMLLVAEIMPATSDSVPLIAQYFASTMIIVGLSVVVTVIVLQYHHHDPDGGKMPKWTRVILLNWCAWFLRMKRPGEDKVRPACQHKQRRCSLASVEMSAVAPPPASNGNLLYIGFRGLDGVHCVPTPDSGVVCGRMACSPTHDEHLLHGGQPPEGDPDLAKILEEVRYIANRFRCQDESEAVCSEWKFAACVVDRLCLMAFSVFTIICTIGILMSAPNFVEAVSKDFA

Question: How did the activity at 1 µM turn out when `O=C(NC1CCCCC1)N1[C@@H]2CC[C@H]1C[C@@H](n1cnc(-c3cccc(F)c3F)c1)C2` [Example 387] was run?
Answer: 315%

Question: `CC(C)(F)C(=O)N[C@H]1CC[C@@H](n2cnc(-c3cc(F)c(F)cc3F)c2)CC1` [Example 313] was tested. Which activity at 1 µM did it give?
Answer: 273%

Same assay, conditions: 10 μM test compound; ACh at EC20; ratio of RLU (Max-Min) to control wells; read-out: α7PAM (%) @10 μM

Question: Which activity at 10 µM does the source give for `CC(C)(F)C(=O)N[C@H]1CC[C@@H](n2cnc(-c3ccc(Cl)cc3)c2)CC1` [Example 280, N-{cis-4-[4-(4-chlorophenyl)-1H-imidazol-1-yl]cyclohexyl}-2-fluoro-2-methylpropanamide] here?
Answer: 787%

Question: For `CC(C)(F)C(=O)N[C@H]1CC[C@@H](n2cnc(-c3ccccc3F)c2Cl)CC1` [Example 185], which activity at 10 µM is on record?
Answer: 576%

Question: `N#Cc1c(-c2cccc(F)c2F)ncn1[C@H]1C[C@H]2CC[C@@H](C1)N2C(=O)C1CCC(F)(F)CC1` [Example 445] was tested. Which activity at 10 µM did it give?
Answer: 272%

Question: With `N#Cc1c(-c2ccccc2)ncn1[C@H]1CC[C@@H](NC(=O)C2CCC2)CC1` [Example 198] as the compound, how does the activity at 10 µM read?
Answer: 799%

Question: With `N#Cc1c(-c2ccc(F)cc2)ncn1[C@H]1CC[C@@H](NC(=O)C2CCC(F)(F)CC2)CC1` [Example 335] as the compound, how does the activity at 10 µM read?
Answer: 312%

Question: `O=C(N[C@H]1CC[C@H](n2cnc(-c3ccccc3)c2)CC1)C1CCC(F)(F)CC1` [Example 205] was tested. Which activity at 10 µM did it give?
Answer: 110%

Question: With `O=C(NC1CCCCC1)N1CCC(n2cnc(-c3cccnc3)c2)CC1` [Example 133] as the compound, how does the activity at 10 µM read?
Answer: 101%

Question: Which activity at 10 µM does the source give for `COc1cc(F)c(-c2cn([C@H]3CC[C@@H](NC(=O)C(C)(C)F)CC3)cn2)cc1F` [Example 319] here?
Answer: 328%

Question: Which activity at 10 µM does the source give for `N#Cc1c(-c2ccccc2F)ncn1C1CCN(C(=O)C2CC(F)(F)C2)CC1` [Example 270] here?
Answer: 569%

Question: `O=C(C1CCC(F)(F)CC1)N1CCC(n2cnc(-c3cccc(OC(F)F)c3)c2)CC1` [Example 145] was tested. Which activity at 10 µM did it give?
Answer: 363%

Question: With `CC(F)(F)C(=O)N[C@H]1CC[C@@H](n2cnc(-c3ccc(Cl)cc3)c2)CC1` [Example 291] as the compound, how does the activity at 10 µM read?
Answer: 420%

Question: How did the activity at 10 µM turn out when `Cc1c(-c2ccc(F)cc2)ncn1[C@H]1CC[C@@H](NC(=O)C(C)(C)C)CC1` [Example 354] was run?
Answer: 230%

Question: `N#Cc1c(-c2ccc(F)cc2)ncn1[C@@H]1C[C@H]2CC[C@@H](C1)N2C(=O)NC1CCCCC1` [Example 421] was tested. Which activity at 10 µM did it give?
Answer: 426%

Question: How did the activity at 10 µM turn out when `CC(C)(F)C(=O)N[C@H]1CC[C@@H](n2cnc(-c3ccc(OC(F)(F)F)cc3)c2)CC1` [Example 278] was run?
Answer: 834%

Question: Which activity at 10 µM does the source give for `O=C(C1CCOCC1)N1[C@@H]2CC[C@H]1C[C@H](n1cnc(-c3cc(F)ccc3F)c1Cl)C2` [Example 460] here?
Answer: 390%

Question: For `COC1CCC(NC(=O)N2CCC(n3cnc(-c4cccs4)c3)CC2)CC1` (stereo not shown) [Example 127], which activity at 10 µM is on record?
Answer: 170%

Question: How did the activity at 10 µM turn out when `N#Cc1c(-c2ccc(F)cc2)ncn1C1CCN(C(=O)C2CCC(F)(F)CC2)CC1` [Example 154, 1-{1-[(4,4-difluorocyclohexyl)carbonyl]piperidin-4-yl}-4-(4-fluorophenyl)-1H-imidazole-5-carbonitrile] was run?
Answer: 644%

Question: How did the activity at 10 µM turn out when `N#Cc1c(-c2ccc(C(F)(F)F)cc2)ncn1C1CCN(C(=O)C2CCC(F)(F)CC2)CC1` [Example 157] was run?
Answer: 236%

Question: How did the activity at 10 µM turn out when `O=C(N[C@H]1CC[C@@H](n2cnc(-c3ccccc3)c2Cl)CC1)C1(C(F)(F)F)CC1` [Example 174] was run?
Answer: 224%

Question: How did the activity at 10 µM turn out when `COC1CCC(NC(=O)N2CCC(n3cnc(-c4ccc(C)s4)c3)CC2)CC1` (stereo not shown) [Example 128] was run?
Answer: 188%

Question: How did the activity at 10 µM turn out when `O=C(NC1CCOCC1)[C@H]1CC[C@@H](n2cnc(-c3cccc(F)c3F)c2Cl)CC1` [Example 371] was run?
Answer: 962%

Question: Which activity at 10 µM does the source give for `O=C(C1CCOCC1)N1CCC(n2cnc(-c3ccc(Cl)cc3)c2Cl)CC1` [Example 264] here?
Answer: 781%

Question: With `O=C(N[C@H]1CC[C@@H](n2cnc(-c3ccc(F)cc3)c2Cl)CC1)C1CCC1` [Example 181] as the compound, how does the activity at 10 µM read?
Answer: 641%

Question: `O=C(NC1CCC(F)(F)CC1)N1CCC(n2cnc(-c3ccnc(Cl)c3)c2)CC1` [Example 120] was tested. Which activity at 10 µM did it give?
Answer: 208%

Question: For `COc1ccc(-c2ncn(C3CCN(C(=O)C4CCC(F)(F)CC4)CC3)c2C#N)cc1` [Example 265], which activity at 10 µM is on record?
Answer: 990%

Question: Which activity at 10 µM does the source give for `CC(C)(F)C(=O)N[C@H]1CC[C@@H](n2cnc(-c3ccc(F)c(F)c3)c2C#N)CC1` [Example 342] here?
Answer: 369%

Question: `CC(C)(F)C(=O)N[C@H]1CC[C@@H](n2cnc(-c3ccc(C(F)(F)F)cc3)c2C#N)CC1` [Example 201, N-(cis-4-{5-cyano-4-[4-(trifluoromethyl)phenyl]-1H-imidazol-1-yl}cyclohexyl)-2-fluoro-2-methylpropanamide] was tested. Which activity at 10 µM did it give?
Answer: 224%

Question: How did the activity at 10 µM turn out when `O=C(C1CCOCC1)N1CCC(n2cnc(-c3ccc(C(F)(F)F)cc3)c2Cl)CC1` [Example 262] was run?
Answer: 603%

Question: How did the activity at 10 µM turn out when `CC(F)(F)C(=O)N[C@H]1CC[C@@H](n2cnc(-c3ccc(F)cc3)c2)CC1` [Example 288] was run?
Answer: 327%

Question: For `O=C(C1CCOCC1)N1[C@@H]2CC[C@H]1C[C@H](n1cnc(-c3cccc(F)c3F)c1Cl)C2` [Example 458], which activity at 10 µM is on record?
Answer: 434%

Question: For `CC(C)(F)C(=O)N[C@H]1CC[C@@H](n2cnc(-c3cccc(F)c3F)c2C#N)CC1` [Example 339], which activity at 10 µM is on record?
Answer: 351%

Question: `N#Cc1c(-c2cccc(C(F)(F)F)c2)ncn1C1CCN(C(=O)C2CCC(F)(F)CC2)CC1` [Example 158] was tested. Which activity at 10 µM did it give?
Answer: 132%

Question: With `CC(C)(C)NC(=O)N1CCC(n2cnc(-c3ccccc3F)c2)CC1` [Example 67] as the compound, how does the activity at 10 µM read?
Answer: 317%

Question: `N#Cc1c(-c2cccc(F)c2F)ncn1[C@@H]1C[C@H]2CC[C@@H](C1)N2C(=O)NC1CCC(F)(F)CC1` [Example 424] was tested. Which activity at 10 µM did it give?
Answer: 210%

Question: How did the activity at 10 µM turn out when `CC(C)(F)C(=O)N[C@H]1CC[C@@H](n2cnc(-c3ccc(OC(F)(F)F)c(F)c3)c2C#N)CC1` [Example 348] was run?
Answer: 131%

Question: How did the activity at 10 µM turn out when `O=C(C1CCC(F)(F)CC1)N1[C@@H]2CC[C@H]1C[C@H](n1cnc(-c3cccc(F)c3F)c1Cl)C2` [Example 457] was run?
Answer: 865%

Same assay, conditions: comparison across Tables 18 to 25

Question: How did the “PAM activity for α7 nAChR (in words)” value turn out when `O=C(NC1CCC(F)(F)CC1)N1CCC(n2cnc(-c3ccc(C(F)(F)F)cc3)c2)CC1` [Example 25] was run?
Answer: stronger PAM activity than others

Question: How did the “PAM activity for α7 nAChR (in words)” value turn out when `O=C(NC1CCC(F)(F)CC1)N1CCC(n2cnc(-c3ccc(Cl)cc3)c2)CC1` [Example 22] was run?
Answer: stronger PAM activity than others

System: Slc:ddY mice
Assay: Novel object recognition test in mice (mORT), evaluation of cognitive function
Assay type: in vivo
Details: 3 mg/kg (oral), administered prior to the 1st trial, 2nd trial 24 hours after
Experimental: Evaluation of Cognitive Function with Mice in Novel Object Recognition Test (Hereinafter. Referred to as “mORT”)
Slc:ddY mice (25 to 30 g, male, Japan SLC) can be used in the novel object recognition test wherein the interval between the 1st trial (training) and the 2nd trial (test) correlates with the memory loss for the objects used in the 1st trial, and a significant memory-loss is observed when the 2nd trial is performed 24 hours after the 1st trial. According to the test mechanism, the present compounds were administered prior to the 1st trial, and the enhancement effect on memory in the 2nd trial was evaluated.

Question: With `O=C(C1CCC(F)(F)CC1)N1[C@@H]2CC[C@H]1C[C@H](n1cnc(-c3ccc(F)cc3)c1Cl)C2` [Example 452, {(3-exo)-3-[5-chloro-4-(4-fluorophenyl)-1H-imidazol-1-yl]-8-azabicyclo[3.2.1]oct-8-yl}(4,4-difluorocyclohexyl)methanone] as the compound, how does the “enhancement effect on memory in the 2nd trial (mORT)” value (shortened to “enhancement effect on memory”) read?
Answer: significant memory enhancing effect

Question: `CC(C)(F)C(=O)N[C@H]1CC[C@@H](n2cnc(-c3ccc(Cl)cc3)c2)CC1` [Example 280, N-{cis-4-[4-(4-chlorophenyl)-1H-imidazol-1-yl]cyclohexyl}-2-fluoro-2-methylpropanamide] was tested. Which “enhancement effect on memory” value did it give?
Answer: significant memory enhancing effect

Question: How did the “enhancement effect on memory” value turn out when `O=C(NC1CCOCC1)[C@H]1CC[C@@H](n2cnc(-c3ccc(F)c(F)c3)c2Cl)CC1` [Example 370, cis-4-[5-chloro-4-(3,4-difluorophenyl)-1H-imidazol-1-yl]-(tetrahydro-2H-pyran-4-yl)cyclohexanecarboxamide] was run?
Answer: significant memory enhancing effect
